Results as given in US20240100068A1, “METHODS COMPRISING ADMINISTRATION OF A GLUCOCORTICOID RECEPTOR AGONIST AND AN INHIBITOR OF CALCINEURIN” (Chengdu Anticancer Bioscience, Ltd., priority 2022, published 2024).
Like-named read-outs stand apart in the source and are kept apart here.

Columns and labels:
[1] = system: T2MycNick cells; test: Testing compounds for their ability of restoring contact inhibition (vacuolation, cell density); format: cell-based, murine; details: for minimal effective concentration: T2MycNick cells grown beyond confluence, 7-14 days; for cell density reduction (in words) / vacuolation (in words): compound alone; for vacuolation (in words): up to 10 μM
Experimental: Exponentially growing MycNick cells were passaged into 24-well plates at a final confluence of 90% and were allowed to attach for 48 hours before being exposed to a cortisol analog in the presence or absence of a calcineurin inhibitor. After the initiation of treatment, the cells were allowed to grow beyond confluence for 7 days before being subjected to morphological analysis and cell density. An inverted tissue culture microscope (Leica) was used to document vacuoles in live cells. Cell density was evaluated under an EVOS FL Auto microscope (Thermo Fisher) after fixation of the treated cells with 4% paraformaldehyde (PFA) in the presence of detergent 0.5% Triton X-100 and subsequently staining of DNA with 5 μg/ml of Propidium Iodide (PI) in the presence of 5 μg/ml of Ribonuclease A from bovine pancreas (RNase A) (Sigma, Cat. # R6513-50MG).
Exponentially growing murine cells expressing Myc-Nick (T2MycNick cells) were passaged into 24-well plates at a final confluence of 20% and were allowed to attach overnight before being exposed to a test compound at a concentration of 10 μM. […] The cells were subjected to daily analysis of viability and morphology under an inverted tissue culture microscope or GE InCell Analyzer 2000. Cell density was documented after staining of DNA with PI 7-10 days after the initiation of treatment.

[2] = system: MycNick cells; test: Combination treatment with Hydrocortisone: modulation of HC-induced vacuolation, cell density reduction and CIR effect; format: cell-based, murine; details: for sensitization to induction of vacuolation elicited by Hydrocortisone: 10 days, FIG. 16: Cyclosporin A […], Hydrocortisone 0.3 μM; for Cell density reduction by Hydrocortisone / Vacuolation by Hydrocortisone: Combination treatment with Hydrocortisone for 7 days; for HC-triggered vacuolation in presence of the compound: added to HC
Experimental: Exponentially growing MycNick cells were passaged into 24-well plates at a final confluence of 90% and were allowed to attach for 48 hours before being exposed to a cortisol analog in the presence or absence of a calcineurin inhibitor. […] An inverted tissue culture microscope (Leica) was used to document vacuoles in live cells. Cell density was evaluated under an EVOS FL Auto microscope (Thermo Fisher) after fixation of the treated cells with 4% paraformaldehyde (PFA) in the presence of detergent 0.5% Triton X-100 and subsequently staining of DNA with 5 μg/ml of Propidium Iodide (PI) in the presence of 5 μg/ml of Ribonuclease A from bovine pancreas (RNase A) (Sigma, Cat. # R6513-50MG).
The threshold concentration that was used to elicit no less than 50% of reduction in the cell density was determined. So was the minimal effective concentration that could induce vacuolation to an extent that covered no less than 10% of a random field documented under a bright field microscope. Quantification of the area with vacuolation, multilayer zones or multilayer zones was performed with the Image J software. More than 10 random fields were chosen for quantification for each data point in each of two independent experiments.
A chemical library for enhancers of the CIR effect of HC in MycNick cells was screened.

[3] = Mus musculus, PI staining, read-out: Conc that reduces > 50% in the cell density
[4] = Mus musculus, vacuolation covering no less than 10% of a random field, read-out: Min. effective conc. that elicits vacuolation
[5] = PI staining, read-out: Conc that reduces > 50% in the cell density
[6] = vacuolation covering no less than 10% of a random field, read-out: Min. effective conc. that elicits vacuolation

`CCC(=O)OCC(=O)[C@@]1(OC(=O)CC)[C@@H](C)C[C@H]2[C@@H]3CCC4=CC(=O)C=C[C@]4(C)[C@@]3(Cl)[C@@H](O)C[C@@]21C` [CI019, Beclomethasone dipropionate] gave a minimal effective concentration [1, 3] of 2.5 µM and a minimal effective concentration [1, 4] of 0.625 µM.

`CC1(C)O[C@@H]2C[C@H]3[C@@H]4CCC5=CC(=O)C=C[C@]5(C)[C@H]4[C@@H](O)C[C@]3(C)[C@]2(C(=O)CO)O1` [CI020, Desonide] was tested, and the minimal effective concentration [1, 3] was 2.5 µM and the minimal effective concentration [1, 4] was 0.625 µM.

Compound `CC1(C)O[C@@H]2C[C@H]3[C@@H]4C[C@H](F)C5=CC(=O)C=C[C@]5(C)[C@@]4(F)[C@@H](O)C[C@]3(C)[C@]2(C(=O)CO)O1` [CI021, Fluocinolone Acetonide] has a minimal effective concentration [1, 3] of 2.5 µM and a minimal effective concentration [1, 4] of 0.625 µM.

`CCC(=O)O[C@]1(C(=O)SCF)[C@H](C)C[C@H]2[C@@H]3C[C@H](F)C4=CC(=O)C=C[C@]4(C)[C@@]3(F)[C@@H](O)C[C@@]21C` [CI022, Fluticasone propionate] showed a minimal effective concentration [1, 3] of 2.5 µM and a minimal effective concentration [1, 4] of 0.625 µM.

For `C[C@@H]1C[C@H]2[C@@H]3CCC4=CC(=O)C=C[C@]4(C)[C@@]3(Cl)[C@@H](O)C[C@]2(C)[C@@]1(OC(=O)c1ccco1)C(=O)CCl` [CI023, Mometasone Furoate], the minimal effective concentration [1, 3] was 2.5 µM and the minimal effective concentration [1, 4] was 0.625 µM.

Compound `C[C@]12C[C@H](O)[C@H]3[C@@H](CCC4=CC(=O)CC[C@@]43C)[C@@H]1CC[C@@H]2C(=O)CO` [CI028, Corticosterone] has a minimal effective concentration [1, 3] of 2.5 µM and a minimal effective concentration [1, 4] of 0.625 µM.

`C#C[C@]1(OC(C)=O)CC[C@H]2[C@@H]3CCC4=C[C@@H](OC(C)=O)CC[C@@H]4[C@H]3CC[C@@]21C` [CI030, Ethynodiol diacetate] was tested, and the minimal effective concentration [1, 3] was 5 µM, the minimal effective concentration [1, 4] was greater than 10 µM and the “cell density reduction (in words)” value [1] was “failed to elicit vacuolation or reduce cell density”. For the same compound, the “vacuolation (in words)” value [1] was “failed to elicit vacuolation”.

With `CC(=O)O[C@]1(C(C)=O)CC[C@H]2[C@@H]3C[C@H](C)C4=CC(=O)CC[C@]4(C)[C@H]3CC[C@@]21C` [CI031, Medroxyprogesterone acetate] the minimal effective concentration [1, 5] was 2.5 µM and the minimal effective concentration [1, 6] was 2.5 µM.

For `C#C[C@]1(O)CC[C@H]2[C@@H]3CCC4=CC(=O)CC[C@]4(C)[C@H]3CC[C@@]21C` [CI032, Ethisterone], the minimal effective concentration [1, 3] was 10 µM, the minimal effective concentration [1, 4] was greater than 10 µM and the “cell density reduction (in words)” value [1] was “failed to elicit vacuolation or reduce cell density”. For the same compound, the “vacuolation (in words)” value [1] was “failed to elicit vacuolation”.

With `C[C@]12CCC3=C4CCC(=O)C=C4CC[C@H]3[C@@H]1CC[C@@]2(O)CC#N` [CI033, Dienogest] the minimal effective concentration [1, 3] was 10 µM, the minimal effective concentration [1, 4] was greater than 10 µM and the “cell density reduction (in words)” value [1] was “failed to elicit vacuolation or reduce cell density”. The “vacuolation (in words)” value [1] was “failed to elicit vacuolation”.

For `CC[C@@H]1/C=C(\C)C[C@H](C)C[C@H](OC)[C@H]2O[C@@](O)(C(=O)C(=O)N3CCCC[C@H]3C(=O)O[C@H](/C(C)=C/[C@@H]3CC[C@@H](O)[C@H](OC)C3)[C@H](C)[C@@H](O)CC1=O)[C@H](C)C[C@@H]2OC` [CI034, Ascomycin], the “sensitization to induction of vacuolation elicited by Hydrocortisone” value (from here on “sensitization to induction”) [2] was “sensitizes”, the “Cell density reduction by Hydrocortisone” value [2] was “Enhanced” and the “Vacuolation by Hydrocortisone” value [2] was “Enhanced”. The “vacuolation (in words)” value [1] was “did not elicit vacuolation”.

`C[C@@H]1C[C@H]2[C@@H]3CCC4=CC(=O)C=C[C@]4(C)[C@@]3(F)[C@@H](O)C[C@]2(C)[C@@]1(O)C(=O)COP(=O)([O-])[O-].[Na+].[Na+]` [CI039, Dexamethasone 21-phosphate disodium salt] was tested, and the minimal effective concentration [1, 5] was 2.5 µM and the minimal effective concentration [1, 6] was 0.625 µM.

`CC[C@@H]1/C=C(\C)C[C@H](C)C[C@H](OC)[C@H]2O[C@@](O)(C(=O)C(=O)N3CCCC[C@H]3C(=O)O[C@H](/C(C)=C/[C@@H]3CC[C@H](Cl)[C@H](OC)C3)[C@H](C)[C@@H](O)CC1=O)[C@H](C)C[C@@H]2OC` [CI040, Pimecrolimus] was tested, and the “sensitization to induction” value [2] was “sensitizes”, the “Cell density reduction by Hydrocortisone” value [2] was “Enhanced” and the “Vacuolation by Hydrocortisone” value [2] was “Enhanced”. For the same compound, the “vacuolation (in words)” value [1] was “did not elicit vacuolation”.

`CC1(C)O[C@@H]2C[C@H]3[C@@H]4CCC5=CC(=O)C=C[C@]5(C)[C@@]4(F)[C@@H](O)C[C@]3(C)[C@]2(C(=O)CO)O1` [CI041, Triamcinolone acetonide] showed a minimal effective concentration [1, 3] of 2.5 µM and a minimal effective concentration [1, 4] of 0.625 µM.

Work on `C[C@]12C=CC(=O)C=C1CC[C@@H]1[C@@H]2C(=O)C[C@@]2(C)[C@H]1CC[C@]2(O)C(=O)CO` [CI042, Prednisone] yielded a minimal effective concentration [1, 3] of 2.5 µM and a minimal effective concentration [1, 4] greater than 10 µM.

For `CC(=O)[C@@]1(O)CC[C@H]2[C@@H]3C[C@H](C)C4=CC(=O)C=C[C@]4(C)[C@@]3(F)[C@@H](O)C[C@@]21C` [CI043, Fluorometholone], the minimal effective concentration [1, 3] was 2.5 µM and the minimal effective concentration [1, 4] was 0.625 µM.

With `C=CC[C@@H]1/C=C(\C)C[C@H](C)C[C@H](OC)[C@H]2O[C@@](O)(C(=O)C(=O)N3CCCC[C@H]3C(=O)O[C@H](/C(C)=C/[C@@H]3CC[C@@H](O)[C@H](OC)C3)[C@H](C)[C@@H](O)CC1=O)[C@H](C)C[C@@H]2OC` [CI046, Tacrolimus] the “sensitization to induction” value [2] was “sensitizes”, the “Cell density reduction by Hydrocortisone” value [2] was “Enhanced” and the “Vacuolation by Hydrocortisone” value [2] was “Enhanced”. The “vacuolation (in words)” value [1] was “did not elicit vacuolation”.

Compound `C[C@]12C=CC(=O)C=C1CC[C@H]1[C@@H]3C[C@@H](O)[C@](O)(C(=O)CO)[C@@]3(C)C[C@H](O)[C@@]12F` [CI047, Triamcinolone] has a minimal effective concentration [1, 3] of 2.5 µM and a minimal effective concentration [1, 4] of 0.625 µM.

`CC(=O)OCC(=O)[C@@]12OC(C)(C)O[C@@H]1C[C@H]1[C@@H]3C[C@H](F)C4=CC(=O)C=C[C@]4(C)[C@@]3(F)[C@@H](O)C[C@@]12C` [CI048, Fluocinonide] gave a minimal effective concentration [1, 3] of 2.5 µM and a minimal effective concentration [1, 4] of 0.625 µM.

With `C[C@]12CCC(=O)C=C1CC[C@@H]1[C@@H]2CC[C@@]2(C)[C@H]1CC[C@]2(O)C(=O)CO` [CI049, Cortodoxone] the minimal effective concentration [1, 3] was 10 µM and the minimal effective concentration [1, 4] was 5 µM.

With `CC(=O)OCC(=O)[C@@]1(O)CC[C@H]2[C@@H]3CCC4=CC(=O)CC[C@]4(C)[C@H]3[C@@H](O)C[C@@]21C` [HC003, Hydrocortisone 21-acetate] the minimal effective concentration [1, 5] was 2 µM and the minimal effective concentration [1, 6] was greater than 10 µM.

Compound `CCCC(=O)O[C@]1(C(=O)CO)CC[C@H]2[C@@H]3CCC4=CC(=O)CC[C@]4(C)[C@H]3[C@@H](O)C[C@@]21C` [HC004, Hydrocortisone 17-Butyrate] has a minimal effective concentration [1, 5] of 10 µM and a minimal effective concentration [1, 6] greater than 10 µM.

In the case of `CC(=O)OCC(=O)[C@@]1(O)[C@H](C)C[C@H]2[C@@H]3CCC4=CC(=O)C=C[C@]4(C)[C@@]3(F)[C@@H](O)C[C@@]21C` [HC005, Dexamethasone 21-acetate], the minimal effective concentration [1, 5] is reported as 10 µM and the minimal effective concentration [1, 6] is reported as greater than 10 µM.

In the case of `CC#C[C@]1(O)CC[C@H]2[C@@H]3CCC4=CC(=O)CCC4=C3[C@@H](c3ccc(N(C)C)cc3)C[C@@]21C` [Mifepristone], the “CIR effect of HC in presence of antagonist” value ([2]; 5 μM of Mifepristone) is reported as “completely blocked” and the “contact inhibition restoration (CIR) activity” value ([1]; high-density cells) is reported as “failed to elicit”.

For `Cn1c(=O)cc(N2CCC[C@@H](N)C2)n(Cc2ccccc2C#N)c1=O` [alogliptin], the “HC-triggered vacuolation in presence of the compound” value [2] was “failed to inhibit”.

With `CC#CCn1c(N2CCC[C@@H](N)C2)nc2c1c(=O)n(Cc1nc(C)c3ccccc3n1)c(=O)n2C` [linagliptin] the “HC-triggered vacuolation in presence of the compound” value [2] was “failed to inhibit”.
